From ChEMBL document CHEMBL5131475, “Metallo-β-lactamases inhibitor fisetin attenuates meropenem resistance in NDM-1-producing Escherichia coli” (Eur J Med Chem, 2022)
Converted amounts (≈) assume the structure as drawn.

Columns and labels:
Type in all cases: functional
Conditions in all cases: time 18-24 hrs
Escherichia coli [1] = experiment: Antibacterial activity against pET28a-NDM-1 positive Escherichia coli BL21(DE3) isolates assessed as inhibition of bacterial growth incubated for 18 to 24 hrs by CLSI based broth microdilution method
Escherichia coli [2] = experiment: Antibacterial activity against NDM-1 positive Escherichia coli ZC-YN3 isolates assessed as inhibition of bacterial growth incubated for 18 to 24 hrs by CLSI based broth microdilution method
Escherichia coli [3] = experiment: Antibacterial activity against NDM-1 positive MCR1 carrying Escherichia coli ZJ487 isolates assessed as inhibition of bacterial growth incubated for 18 to 24 hrs by CLSI based broth microdilution method
Escherichia coli [4] = experiment: Antibacterial activity against NDM-1 negative Escherichia coli ATCC25922 isolates assessed as inhibition of bacterial growth incubated for 18 to 24 hrs by CLSI based broth microdilution method
Escherichia coli [5] = experiment: Antibacterial activity against NDM-1 negative Escherichia coli BL21(DE3) pET28a isolates assessed as inhibition of bacterial growth incubated for 18 to 24 hrs by CLSI based broth microdilution method

Row | Compound | MIC (Escherichia coli [1]) [µg/mL] | MIC (Escherichia coli [2]) [µg/mL] | MIC (Escherichia coli [3]) [µg/mL] | MIC (Escherichia coli [4]) [µg/mL] | MIC (Escherichia coli [5]) [µg/mL]
1 | CS(=O)(=O)c1ccc([C@@H](O)[C@@H](CF)NC(=O)C(Cl)Cl)cc1 [FLORFENICOL] | 1020 (≈ 2850 µM) | 427 (≈ 1190 µM) |  |  | 
2 | C[C@@H](O)[C@H]1C(=O)N2C(C(=O)O)=C(SCCNC=N)C[C@H]12 [IMIPENEM ANHYDROUS] | 26.7 (≈ 89.2 µM) | 26.7 (≈ 89.2 µM) |  |  | 
3 | CCC[C@@H]1C[C@@H](C(=O)N[C@@H]([C@H]2O[C@H](SC)[C@H](O)[C@@H](O)[C@H]2O)[C@@H](C)O)N(C)C1 [LINCOMYCIN] | 1020 (≈ 2510 µM) | 1020 (≈ 2510 µM) |  |  | 
4 | C[C@@H](O)[C@H]1C(=O)N2C(C(=O)O)=C(S[C@@H]3CN[C@H](C(=O)N(C)C)C3)[C@H](C)[C@H]12 [MEROPENEM] | 37.3 (≈ 97.3 µM) | 16 (≈ 41.7 µM) | 21.3 (≈ 55.5 µM) | 0.01 (≈ 0.0261 µM) | 0.01 (≈ 0.0261 µM)
5 | CN[C@H](CC(C)C)C(=O)N[C@H]1C(=O)N[C@@H](CC(N)=O)C(=O)N[C@H]2C(=O)N[C@H]3C(=O)N[C@H](C(=O)N[C@H](C(=O)O)c4cc(O)cc(O)c4-c4cc3ccc4O)[C@H](O)c3ccc(c(Cl)c3)Oc3cc2cc(c3O[C@@H]2O[C@H](CO)[C@@H](O)[C@H](O)[C@H]2O[C@H]2C[C@](C)(N)[C@H](O)[C@H](C)O2)Oc2ccc(cc2Cl)[C@H]1O [VANCOMYCIN] | 683 (≈ 471 µM) | 512 (≈ 353 µM) |  |  | 
6 | CO/N=C(\C(=O)N[C@@H]1C(=O)N2C(C(=O)O)=C(COC(C)=O)CS[C@H]12)c1csc(N)n1 [CEFOTAXIME] | 512 (≈ 1120 µM) | 512 (≈ 1120 µM) |  |  | 

Now from value to compound, other results behind:

Row | MIC (Escherichia coli [1]) [µg/mL] | MIC (Escherichia coli [2]) [µg/mL] | Compound | MIC (Escherichia coli [3]) [µg/mL] | MIC (Escherichia coli [4]) [µg/mL] | MIC (Escherichia coli [5]) [µg/mL]
7 | 1.67 | 1.33 | COLISTIN |  |  | 
8 | 128 | 64 | C[C@H]1c2cccc(O)c2C(=O)C2=C(O)[C@]3(O)C(=O)C(C(N)=O)=C(O)[C@@H](N(C)C)[C@@H]3[C@@H](O)[C@@H]21.O [DOXYCYCLINE] |  |  | 
9 | 853 (≈ 2440 µM) | 853 (≈ 2440 µM) | CC1(C)S[C@@H]2[C@H](NC(=O)[C@H](N)c3ccccc3)C(=O)N2[C@H]1C(=O)O [AMPICILLIN] |  |  | 
10 | 512 (≈ 1060 µM) | 853 (≈ 1760 µM) | NC[C@H]1O[C@H](O[C@H]2[C@H](O)[C@@H](O[C@H]3O[C@H](CO)[C@@H](O)[C@H](N)[C@H]3O)[C@H](N)C[C@@H]2N)[C@H](O)[C@@H](O)[C@@H]1O [KANAMYCIN] |  |  | 
11 | 512 (≈ 1150 µM) | 128 (≈ 288 µM) | CN(C)[C@@H]1C(O)=C(C(N)=O)C(=O)[C@@]2(O)C(O)=C3C(=O)c4c(O)cccc4[C@@](C)(O)[C@H]3C[C@@H]12 [TETRACYCLINE] |  |  | 
12 | 53.3 (≈ 91.6 µM) | 256 (≈ 440 µM) | CN[C@@H]1[C@H](O[C@H]2[C@H](O[C@H]3[C@H](O)[C@@H](O)[C@H](N=C(N)N)[C@@H](O)[C@@H]3N=C(N)N)O[C@@H](C)[C@]2(O)C=O)O[C@@H](CO)[C@H](O)[C@H]1O [STREPTOMYCIN] |  |  | 
13 | 512 (≈ 1540 µM) | 853 (≈ 2570 µM) | CN[C@@H]1[C@H](O)[C@H](NC)[C@H]2O[C@@]3(O)C(=O)C[C@@H](C)O[C@H]3O[C@@H]2[C@H]1O [SPECTINOMYCIN] |  |  | 
14 | 1020 (≈ 1240 µM) | 13.3 (≈ 16.2 µM) | CO[C@H]1/C=C/O[C@@]2(C)Oc3c(C)c(O)c4c(O)c(c(/C=N/N5CCN(C)CC5)c(O)c4c3C2=O)NC(=O)/C(C)=C\C=C\[C@H](C)[C@H](O)[C@@H](C)[C@@H](O)[C@@H](C)[C@H](OC(C)=O)[C@@H]1C [RIFAMPIN] |  |  | 
